Laboratory results from patent US9040530B2, “1,2,4-triazine-6-carboxamide kinase inhibitors” (Portola Pharmaceuticals, Inc., priority 2012, dated 2015).

molecular target: T1, full length active recombinant SYK enzyme (Homo sapiens, UniProt P43405); test: Inhibition of Syk tyrosine phosphorylation activity (LANCE TR-FRET kinase assay); format: biochemical; settings: 1 nM active SYK enzyme, 550 nM SYK-substrate, 100 μM ATP, 1 hour at room temperature
T1 construct: full length active recombinant SYK enzyme (Millipore, Calif.); purchased Millipore

| IC50 | SMILES |
| --- | --- |
| < 1 nM | Cn1ccc2c(Nc3nc(N[C@@H]4CCCC[C@@H]4N)nnc3C(N)=O)ccnc21 [Example 129, 3-(((1R,2S)-2-aminocyclohexyl)amino)-5-((1-methyl-1H-pyrrolo[2,3-b]pyridin-4-yl)amino)-1,2,4-triazine-6-carboxamide] |
| > 1000 nM | NC(=O)c1nnc(N[C@@H]2CCCC(F)(F)[C@@H]2N)nc1Nc1cccc(-c2ncco2)c1 [Example 130, 3-(((1R,2R)-2-amino-3,3-difluorocyclohexyl)amino)-5-((3-(oxazol-2-yl)phenyl)amino)-1,2,4-triazine-6-carboxamide] |
| 1 to 10 nM | NC(=O)c1nnc(N[C@@H]2CCCC[C@@H]2N)nc1Nc1ccc(-c2ncco2)cc1 [Example 131, 3-(((1R,2S)-2-aminocyclohexyl)amino)-5-((4-(oxazol-2-yl)phenyl)amino)-1,2,4-triazine-6-carboxamide] |
| 10 to 100 nM | NC(=O)c1nnc(N[C@@H]2CCCC(F)(F)[C@@H]2N)nc1Nc1ccc(-c2ncco2)cc1 [Example 132, 3-(((1R,2R)-2-amino-3,3-difluorocyclohexyl)amino)-5-((4-(oxazol-2-yl)phenyl)amino)-1,2,4-triazine-6-carboxamide] |
| 10 to 100 nM | NC(=O)c1nnc(N[C@@H]2CCCC[C@@H]2N)nc1Nc1cncs1 [Example 133, 3-(((1R,2S)-2-aminocyclohexyl)amino)-5-(thiazol-5-ylamino)-1,2,4-triazine-6-carboxamide] |
| 10 to 100 nM | CC[C@@H](Nc1nnc(C(N)=O)c(Nc2ccc(C(F)(F)F)c(C(F)(F)F)c2)n1)C(N)=O [Example 135, (R)-3-((1-amino-1-oxobutan-2-yl)amino)-5-((3,4-bis(trifluoromethyl)phenyl)amino)-1,2,4-triazine-6-carboxamide] |
| 1 to 10 nM | Cn1cc(C#N)c2ccc(Nc3nc(N[C@@H]4CCCC[C@@H]4N)nnc3C(N)=O)cc21 [Example 136, 3-(((1R,2S)-2-aminocyclohexyl)amino)-5-((3-cyano-1-methyl-1H-indol-6-yl)amino)-1,2,4-triazine-6-carboxamide] |
| > 1000 nM | NC(=O)c1nnc(N[C@@H]2CCCC[C@@H]2N)nc1Nc1nc(-c2ccccc2)no1 [Example 138, 3-(((1R,2S)-2-aminocyclohexyl)amino)-5-((3-phenyl-1,2,4-oxadiazol-5-yl)amino)-1,2,4-triazine-6-carboxamide] |
| 10 to 100 nM | Cn1ncc2c(Nc3nc(N[C@@H]4CCOC[C@@H]4N)nnc3C(N)=O)cccc21 [Example 139, 3-(((3R,4R)-3-aminotetrahydro-2H-pyran-4-yl)amino)-5-((1-methyl-1H-indazol-4-yl)amino)-1,2,4-triazine-6-carboxamide] |
| 10 to 100 nM | CC[C@@H](Nc1nnc(C(N)=O)c(Nc2cc(C)ns2)n1)C(N)=O [Example 140, (R)-3-((1-amino-1-oxobutan-2-yl)amino)-5-((3-methylisothiazol-5-yl)amino)-1,2,4-triazine-6-carboxamide] |
| 10 to 100 nM | Cc1cc(Nc2nc(N[C@H](CC3CC3)C(N)=O)nnc2C(N)=O)sn1 [Example 141, (R)-3-((1-amino-3-cyclopropyl-1-oxopropan-2-yl)amino)-5-((3-methylisothiazol-5-yl)amino)-1,2,4-triazine-6-carboxamide] |
| 10 to 100 nM | Cc1cc(Nc2nc(N[C@@H]3CCOC[C@@H]3N)nnc2C(N)=O)sn1 [Example 142, 3-(((3R,4R)-3-aminotetrahydro-2H-pyran-4-yl)amino)-5-((3-methylisothiazol-5-yl)amino)-1,2,4-triazine-6-carboxamide] |
| 10 to 100 nM | Cc1ccc(Nc2nc(N[C@H](CC(F)F)C(N)=O)nnc2C(N)=O)cc1 [Example 143, (R)-3-((1-amino-4,4-difluoro-1-oxobutan-2-yl)amino)-5-(p-tolylamino)-1,2,4-triazine-6-carboxamide] |
| 10 to 100 nM | Cc1ccc(Nc2nc(N[C@H](CC(F)(F)F)C(N)=O)nnc2C(N)=O)cc1 [Example 144, (R)-3-((1-amino-4,4,4-trifluoro-1-oxobutan-2-yl)amino)-5-(p-tolylamino)-1,2,4-triazine-6-carboxamide] |
| 1 to 10 nM | Cc1ccc(Nc2nc(N[C@@H]3CCOC[C@@H]3N)nnc2C(N)=O)cc1C [Example 145, 3-(((3R,4R)-3-aminotetrahydro-2H-pyran-4-yl)amino)-5-((3,4-dimethylphenyl)amino)-1,2,4-triazine-6-carboxamide] |
| 100 to 1000 nM | CC[C@@H](Nc1nnc(C(N)=O)c(Nc2cnc3cccnc3c2)n1)C(N)=O [Example 146, (R)-5-((1,5-naphthyridin-3-yl)amino)-3-((1-amino-1-oxobutan-2-yl)amino)-1,2,4-triazine-6-carboxamide] |
| 1 to 10 nM | Cn1cc(C#N)c2ccc(Nc3nc(N[C@H](CC(F)F)C(N)=O)nnc3C(N)=O)cc21 [Example 147, (R)-3-((1-amino-4,4-difluoro-1-oxobutan-2-yl)amino)-5-((3-cyano-1-methyl-1H-indol-6-yl)amino)-1,2,4-triazine-6-carboxamide] |

| IC50 | SMILES |
| --- | --- |
| 1 to 10 nM | Cn1ccc2c(Nc3nc(N[C@@H]4CCCC[C@@H]4N)nnc3C(N)=O)cncc21 [Example 148, 3-(((1R,2S)-2-aminocyclohexyl)amino)-5-((1-methyl-1H-pyrrolo[2,3-c]pyridin-4-yl)amino)-1,2,4-triazine-6-carboxamide] |
| 1 to 10 nM | NC(=O)c1nnc(N[C@H](CC(F)(F)F)C(N)=O)nc1Nc1ccc2ncccc2c1 [Example 149, (R)-3-((1-amino-4,4,4-trifluoro-1-oxobutan-2-yl)amino)-5-(quinolin-6-ylamino)-1,2,4-triazine-6-carboxamide] |
| 1 to 10 nM | NC(=O)c1nnc(N[C@H](CC(F)F)C(N)=O)nc1Nc1ccc2ncccc2c1 [Example 150, (R)-3-((1-amino-4,4-difluoro-1-oxobutan-2-yl)amino)-5-(quinolin-6-ylamino)-1,2,4-triazine-6-carboxamide] |
| 100 to 1000 nM | Cn1ccc2cc(Nc3nc(N[C@@H]4CCCC(F)(F)[C@@H]4N)nnc3C(N)=O)cnc21 [Example 151, 3-(((1R,2R)-2-amino-3,3-difluorocyclohexyl)amino)-5-((1-methyl-1H-pyrrolo[2,3-b]pyridin-5-yl)amino)-1,2,4-triazine-6-carboxamide] |
| 10 to 100 nM | CC[C@@H](Nc1nnc(C(N)=O)c(Nc2cnc3c(ccn3C)c2)n1)C(N)=O [Example 152, (R)-3-((1-amino-1-oxobutan-2-yl)amino)-5-((1-methyl-1H-pyrrolo[2,3-b]pyridin-5-yl)amino)-1,2,4-triazine-6-carboxamide] |
| 10 to 100 nM | Cn1ccc2cc(Nc3nc(N[C@H]4CN[C@@H](CO)C4)nnc3C(N)=O)cnc21 [Example 153, 3-(((3R,5R)-5-(hydroxymethyl)pyrrolidin-3-yl)amino)-5-((1-methyl-1H-pyrrolo[2,3-b]pyridin-5-yl)amino)-1,2,4-triazine-6-carboxamide] |
| 1 to 10 nM | Cn1ccc2cc(Nc3nc(N[C@@H]4CCCC[C@@H]4N)nnc3C(N)=O)cnc21 [Example 154, 3-(((1R,2S)-2-aminocyclohexyl)amino)-5-((1-methyl-1H-pyrrolo[2,3-b]pyridin-5-yl)amino)-1,2,4-triazine-6-carboxamide] |
| 1 to 10 nM | NC(=O)c1nnc(N[C@@H]2CCCC[C@@H]2N)nc1Nc1cnc2cc(F)ccc2c1 [Example 158, 3-(((1R,2S)-2-aminocyclohexyl)amino)-5-((7-fluoroquinolin-3-yl)amino)-1,2,4-triazine-6-carboxamide] |
| 10 to 100 nM | CC[C@@H](Nc1nnc(C(N)=O)c(Nc2cnc3cc(F)ccc3c2)n1)C(N)=O [Example 159, (R)-3-((1-amino-1-oxobutan-2-yl)amino)-5-((7-fluoroquinolin-3-yl)amino)-1,2,4-triazine-6-carboxamide] |
| 1 to 10 nM | NC(=O)c1nnc(N[C@@H]2CCCC[C@@H]2N)nc1Nc1cnc2c(F)cccc2c1 [Example 160, 3-(((1R,2S)-2-aminocyclohexyl)amino)-5-((8-fluoroquinolin-3-yl)amino)-1,2,4-triazine-6-carboxamide] |
| 10 to 100 nM | CN(C)c1ccc(Nc2nc(N[C@@H]3CCCC[C@@H]3N)nnc2C(N)=O)cc1F [Example 161, 3-(((1R,2S)-2-aminocyclohexyl)amino)-5-((4-(dimethylamino)-3-fluorophenyl)amino)-1,2,4-triazine-6-carboxamide] |
| 10 to 100 nM | CC[C@@H](Nc1nnc(C(N)=O)c(Nc2ccc(N(C)C)c(F)c2)n1)C(N)=O [Example 162, (R)-3-((1-amino-1-oxobutan-2-yl)amino)-5-((4-(dimethylamino)-3-fluorophenyl)amino)-1,2,4-triazine-6-carboxamide] |
| 10 to 100 nM | CC[C@@H](Nc1nnc(C(N)=O)c(Nc2ccc3ccn(C)c3c2)n1)C(N)=O [Example 163, (R)-3-((1-amino-1-oxobutan-2-yl)amino)-5-((1-methyl-1H-indol-6-yl)amino)-1,2,4-triazine-6-carboxamide] |
| 10 to 100 nM | C[C@@H](Nc1nnc(C(N)=O)c(Nc2ccc3ccn(C)c3c2)n1)C(N)=O [Example 164, (R)-3-((1-amino-1-oxopropan-2-yl)amino)-5-((1-methyl-1H-indol-6-yl)amino)-1,2,4-triazine-6-carboxamide] |
| 1 to 10 nM | Cn1ccc2ccc(Nc3nc(N[C@@H]4CCOC[C@@H]4N)nnc3C(N)=O)cc21 [Example 165, 3-(((3R,4R)-3-aminotetrahydro-2H-pyran-4-yl)amino)-5-((1-methyl-1H-indol-6-yl)amino)-1,2,4-triazine-6-carboxamide] |
| 10 to 100 nM | Cn1ccc2ccc(Nc3nc(N[C@@H]4CCCC(F)(F)[C@@H]4N)nnc3C(N)=O)cc21 [Example 166, 3-(((1R,2R)-2-amino-3,3-difluorocyclohexyl)amino)-5-((1-methyl-1H-indol-6-yl)amino)-1,2,4-triazine-6-carboxamide] |
| 10 to 100 nM | Cc1ccc(Nc2nc(N[C@@H]3CCCC(F)(F)[C@@H]3N)nnc2C(N)=O)cc1 [Example 167, 3-(((1R,2R)-2-amino-3,3-difluorocyclohexyl)amino)-5-(p-tolylamino)-1,2,4-triazine-6-carboxamide] |
